Patent publication US11525018B2, “Methods of preparing compositions for containers and other articles and methods of using same” (SWIMC LLC, priority 2014, dated 2022)

Test system: MCF-7, clone WS8, cells
Test: MCF-7 cell proliferation assay of estrogenic activity
Assay type: cell-based, human
Conditions: logarithmic (base 10) Relative Proliferative Effect vs 17-beta estradiol (EC50 ratio times 100), cell proliferation as total DNA; values 'expected or measured'
Description: The MCF-7 assay is a useful test for assessing whether a polyhydric phenol compound is appreciably non-estrogenic. The MCF-7 assay uses MCF-7, clone WS8, cells to measure whether and to what extent a substance induces cell proliferation via estrogen receptor (ER)-mediated pathways. The method is described in “Test Method Nomination: MCF-7 Cell Proliferation Assay of Estrogenic Activity” submitted for validation by CertiChem, Inc. to the National Toxicology Program Interagency Center for the Evaluation of Alternative Toxicological Methods (NICEATM) on Jan. 19, 2006 (available online at http://iccvam.niehs.nih.gov/methods/endocrine/endodocs/SubmDoc.pdf).
A brief summary of the method of the aforementioned MCF-7 assay is provided below. MCF-7, clone WS8, cells are maintained at 37° C. in RMPI (or Roswell Park Memorial Institute medium) containing Phenol Red (e.g., GIBCO Catalog Number 11875119) and supplemented with the indicated additives for routine culture. An aliquot of cells maintained at 37° C. are grown for 2 days in phenol-free media containing 5% charcoal stripped fetal bovine serum in a 25 cm^2 tissue culture flask. Using a robotic dispenser such as an epMotion 5070 unit, MCF-7 cells are then seeded at 400 cells per well in 0.2 ml of hormone-free culture medium in Corning 96-well plates. The cells are adapted for 3 days in the hormone-free culture medium prior to adding the chemical to be assayed for estrogenic activity. The media containing the test chemical is replaced daily for 6 days. At the end of the 7-day exposure to the test chemical, the media is removed, the wells are washed once with 0.2 ml of HBSS (Hanks' Balanced Salt Solution), and then assayed to quantify amounts of DNA per well using a micro-plate modification of the Burton diphenylamine (DPA) assay, which is used to calculate the level of cell proliferation.
RPE is the ratio between the EC50 of the test chemical and the EC50 of the control substance 17-beta estradiol times 100, where EC50 is “effective concentration 50%” or half-maximum stimulation concentration for cell proliferation measured as total DNA in the MCF-7 assay.

SMILES	Log RPE
C[C@]12CC[C@@H]3c4ccc(O)cc4CC[C@H]3[C@@H]1CC[C@@H]2O [17β-estradiol, reference compound]	2.00
Oc1ccc(Cc2ccc(O)cc2)cc1 [Bisphenol F, reference compound]	−2
O=S(=O)(c1ccc(O)cc1)c1ccc(O)cc1 [Bisphenol S, reference compound]	−2
O=C(OCC1CCC(COC(=O)c2cccc(O)c2)CC1)c1cccc(O)c1 (stereo not shown) [Example 2, Run III, bis(3-hydroxybenzoate) of Cyclohexanedimethanol]	less than −4
O=c1c(-c2ccc(O)cc2)coc2cc(O)cc(O)c12 [Genistein, reference compound]	−2
Cc1cc(C(C)(C)c2cc(C)c(O)c(C)c2)cc(C)c1O [Structure 1]	−2
Cc1cc(CCc2cc(C)c(O)c(C)c2)cc(C)c1O [Structure 2]	−3
CC(c1ccc(O)cc1)(c1ccc(O)cc1)c1ccc(O)cc1 [Structure 3]	−3
CC(c1ccccc1)(c1ccc(O)cc1)c1ccc(O)cc1 [Structure 4]	−3
CC(C(=O)O)(c1ccc(O)cc1)c1ccc(O)cc1 [Structure 5]	less than −4
Cc1cc(Cc2cc(C)c(O)c(C)c2)cc(C)c1O [Structure 6]	less than −4
CCCC(c1cc(C(C)(C)C)c(O)cc1C)c1cc(C(C)(C)C)c(O)cc1C [Structure 7]	less than −4
Cc1cc(Cc2cc(C)cc(C(C)(C)C)c2O)c(O)c(C(C)(C)C)c1 [Structure 9]	less than −4
CC(C)(c1ccc(O)cc1)c1ccc(C(C)(C)c2ccc(O)cc2)cc1 [Structure 10]	less than −4
Oc1ccccc1Cc1ccccc1O [Structure 11]	less than −4
CC(C)(C)c1cc(O)c(C(C)(C)C)cc1O [Structure 12]	less than −4
Cc1cc(Cc2cc(C)cc(C3(C)CCCCC3)c2O)c(O)c(C2(C)CCCCC2)c1 [Structure 13]	less than −4
CCc1cc(Cc2cc(CC)cc(C(C)(C)C)c2O)c(O)c(C(C)(C)C)c1 [Structure 15]	less than −4
CC(C)(c1cc(Br)c(O)c(Br)c1)c1cc(Br)c(O)c(Br)c1 [Structure 16]	−3
C/C=C(/C(=C/C)c1ccc(O)cc1)c1ccc(O)cc1 [dienestrol, reference compound]	about 2
CC/C(=C(/CC)c1ccc(O)cc1)c1ccc(O)cc1 [diethylstilbestrol, reference compound]	about 2

Molecular target: T1, human estrogen receptor (Homo sapiens, UniProt P03372)
T1 sequence (P03372 1-595): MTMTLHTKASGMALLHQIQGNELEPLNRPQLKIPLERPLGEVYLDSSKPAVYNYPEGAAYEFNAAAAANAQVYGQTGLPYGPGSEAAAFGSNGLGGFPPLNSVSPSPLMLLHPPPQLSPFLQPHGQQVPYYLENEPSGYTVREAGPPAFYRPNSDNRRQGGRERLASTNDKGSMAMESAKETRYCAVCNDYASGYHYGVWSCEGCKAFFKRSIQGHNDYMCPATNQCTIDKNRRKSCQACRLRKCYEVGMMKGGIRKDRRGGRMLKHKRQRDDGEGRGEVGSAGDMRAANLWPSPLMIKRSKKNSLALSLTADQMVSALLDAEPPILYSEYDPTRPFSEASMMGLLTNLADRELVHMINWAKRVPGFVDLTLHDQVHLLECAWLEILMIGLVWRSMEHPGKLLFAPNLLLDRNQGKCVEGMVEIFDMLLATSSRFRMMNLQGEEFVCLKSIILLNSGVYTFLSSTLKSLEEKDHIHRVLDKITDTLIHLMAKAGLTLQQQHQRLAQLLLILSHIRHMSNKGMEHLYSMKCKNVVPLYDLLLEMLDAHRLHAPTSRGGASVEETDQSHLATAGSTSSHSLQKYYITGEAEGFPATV
Test: suitable in vitro assay correlated to the MCF-7 assay (estrogenic activity)
Assay type: cell-based
Conditions: in vitro assay whose results are directly correlated to the MCF-7 assay through common reference compounds

SMILES	estrogenic activity
Cc1cc(Cc2cc(C)c(O)c(C)c2)cc(C)c1O [Structure 6, 4,4′-methylenebis(2,6-dimethylphenol)]	do not exhibit appreciable estrogenic activity
CCCC(c1cc(C(C)(C)C)c(O)cc1C)c1cc(C(C)(C)C)c(O)cc1C [Structure 7, 4,4′-butylidenebis(2-t-butyl-5-methylphenol)]	do not exhibit appreciable estrogenic activity
CC(C)(C)c1cc(Cc2cc(C(C)(C)C)c(O)c(C(C)(C)C)c2)cc(C(C)(C)C)c1O [Structure 8, 4,4′-methylenebis(2,6-di-t-butylphenol)]	do not exhibit appreciable estrogenic activity
Cc1cc(Cc2cc(C)cc(C(C)(C)C)c2O)c(O)c(C(C)(C)C)c1 [Structure 9]	do not exhibit appreciable estrogenic activity
CC(C)(C)c1cc(O)c(C(C)(C)C)cc1O [Structure 12, 2,5-di-t-butylhydroquinone]	do not exhibit appreciable estrogenic activity

Test system: not listed separately
Test: suitable genotoxicity assays (e.g., Ames II assay)
Conditions: not given
Description: A solution of 4,4′-methylenebis(2,6-di-t-butylphenol) (500 grams, 1.076 moles obtained from Albemarle Corporation) in anhydrous dimethylformamide (1.5 liters) was cooled to −10° C. and a solution of sodium tert-pentoxide (374 grams, 3.23 moles) in anhydrous dimethylformamide (1.5 liters) was added drop wise at −10 to −5° C. The mixture was stirred for 30 minutes at −10° C. Epichlorohydrin (1.9 liters, 24.2 moles) was added via dropping funnel at −10 to −5° C. The solution was allowed to warm up to room temperature and then was heated for 16 hours at a temperature of from 75 to 82° C. After cooling down to ambient temperature, the mixture was added to cold tap water (12 liters). Ethyl acetate (5 liters) was added to the mixture, which was stirred for 10 minutes and separated. The aqueous layer was extracted again with additional ethyl acetate (3 liters). The combined ethyl acetate extracts were washed twice with brine (2×6 liters), dried over anhydrous sodium sulfate (600 grams), and filtered. The solvent was removed under reduced pressure to give 887 grams of crude product as a purple oil. The crude product was dissolved in toluene (600 milliliters) and passed over a silica gel pad (1.4 kilograms), and eluted with a mixture of toluene and heptane (8 parts toluene to 2 parts heptane). The fractions containing product were combined and evaporated under reduced pressure. […]

SMILES	genotoxicity
CC(C)(C)c1cc(Cc2cc(C(C)(C)C)c(OCC3CO3)c(C(C)(C)C)c2)cc(C(C)(C)C)c1OCC1CO1 (stereo not shown) [Diglycidyl ether of 4,4′-methylenebis(2,6-di-tert-butylphenol)]	non-genotoxic
CCCC(c1cc(C(C)(C)C)c(OCC2CO2)cc1C)c1cc(C(C)(C)C)c(OCC2CO2)cc1C (stereo not shown) [Diglycidyl ether of 4,4′Butylidenebis(2-t-butyl-5-methylphenol))]	non-genotoxic
